In patent publication US6426351B1, “Chelerythrine-based therapies for cancer” (priority 2000, dated 2002):
Where two headings read alike, the source gives them in different places.

Key:
SQ20B = experiment: Clonogenic survival of SQ20B with chelerythrine chloride and adriamycin; assay type: cell-based, human
L-1210 tumor cells = details: cited from earlier work
[1] = Body weight and deaths in treated xenograft-bearing mice; assay type: in vivo; details: 2.5-5 mg/kg IP
Description: Mice were weighed on days 8, 9, 10, 11, 12, 13, 14, 15, 16, 17, 18, 21. Symbols represent the mean weight of animals in the representative treatment groups.
(§1) Control mice (n=12) were weighed and injected IP with PBS on days 8, 10, and 12. To determine the proper injection volume, the weight of a mouse (in grams) was divided by 100, and the resulting number (in μl ) was used. Chelerythrine was dissolved in the corresponding volume of PBS. Mice in treatment group 2 (n=10) were injected IP on days 8, 10, and 12 with […]. Treatment group 3 (n=8) mice revere injected IP on days 8, 11, and 14 with 5 mg/kg chelerythrine chloride. Treatment group 4 mice (n=10) were injected IP on days 8, 11, 14, and 17 with 5 mg/kg chelerythrine chloride. Volume was determined on days 8, 10, 13, 15, 17, 21. Body weight was measured on days 8, 9, 10, 11, 12, 13, 14, 15, 16, 17, 18, 21. Each data point represents the mean of 1-3 individual studies (minimum of 8 mice/treatment groups).
At no time did body weight of any study animal fall below 90% of the initial weight at the beginning of treatment. […] Similar results were obtained in two independent studies.

SQ-20B xenografts = experiment: SQ-20B xenograft tumor growth in nude mice; assay type: in vivo; details: for mean tumor volume: IP
Description: Athymic (nude) mice were injected SC in the right hind limb with 5×10^6 SQ20B cells. Tumors were allowed to grow for 8 days at which time treatment was started. Control mice were weighed and injected IP with PBS on days 8, 10, and 12. Treatment group 2 (n=10 were injected once IP on days 8, 10, and 12 with 2.5 mg/kg chelerythrine chloride, treatment group 3 (n=8) were injected once IP on days 8, 10, and 12 with 5 mg/kg chelerythrine chloride, and treatment group 4 (n=8) were injected once IP on days 8, 11 and 14 with 5 mg/kg chelerythrine chloride. Tumor volume was determined on days 8, 10, 13, 15, 17, 21. Each data point represents the mean of 1-3 individual studies +/−SEM. The Mann-Whitney Rank Sum Test (p<0.05) denoted in the graphs by “*”.
SQ-20B (1-5×10^6 tumor cells were injected into the right hind limbs of Sprague-Dawley nude mice (Fredrick Cancer Research Institute, Fredrick Md.). Xenografts were grown for 2-3 wk at which time animals were sorted into treatment groups such that the mean tumor volume was 45 mm^3+/−4.5 mm^3 (SD). At day 0, initial tumor volume was determined by direct measurement with calipers, and tumor volume was deterred and calculated using the equation 1×w^2×0.5 (Hallahan et al., 1995). During treatment tumor volumes were measured twice weekly and are presented as percent of original tumor volume. Data are presented as fractional tumor volume +/−SEM. Significance analyzed using the Mann-Whitney Rank Sum Test (p<0.05) and denoted in the graphs by “*”.
as §1
Mice bearing SQ-2QB xenografts (n>8 for all groups) were injected IP with 2.5 mg/kg on days 8, 10, 12 (Group 2, n=10), 5mg/kg on days 8, 10, 12 (Group 3, n=8), and 5 mg/kg on days 8, 11, 14 (Group 4, n=8). […] By day 21, the mean tumor volumes measured 370 mm^3 in control group, 215 mm^3 in group 1, 197 mm^3 in group 2, and 115 mm^3 in group 3. […]

SQ-20B cells = experiment: DAPI staining of cell and nuclear morphology (apoptosis); assay type: cell-based, human; details: 5 μM chelerythrine, 72 h following treatment
Description: DAPI was used to visualize nuclei […] and overlaid to the phase contrast image. Left, untreated control cells, right 5 μM chelerythrine treated cells.
5×10^5 SQ-20B cells were centrifuged at 1000 rpm and resuspended in approximately 100 μl of media. The cell suspension was then […] with 100 μl of DAPI (4′, 6-iamidino-2-phenylindole, Sigma, 1 μg/ml in PBT [PBS+1% Triton X-100]. One drop of this mixture was then placed on a microslide with a coverslip. The cells were viewed by fluorescence microscopy using an Olympus BX-40 microscope with a 100 Watt Mercury lamp, a 16 or 40×Fluorite objective, N.A. 0.75, (Leco #1-UB527) and a UV filter cube (ex 330-385 nm, em 420 nm, wide band pass, Leco #U-M536). Images were photographed using an Optronics cooled low-light video camera (Leco #DEI-470TB) with a 2× coupler (Leco #HR200-CMT). The image was saved to a digital file at 72 dpi for subsequent image processing with Paint Shop Pro 5 (JASC) running on a Windows NT4 workstation.
The inventors examined whether the concentrations of chelerythrine that decrease viability in the MTT assay induce apoptosis of SQ-20B cells. The inventors examined cell and nuclear morphology by DAPI staining (FIG. 3). Following exposure of SQ-20B cells to 5 μM chelerythrine, morphological changes consistent with apoptosis were observed (FIG. 3A) in nearly 100% of the cells 72 h following treatment.

[2] = test system: MCF7, MCF7ADR, HT29, DaOY and LnCaP cells; experiment: MTT cytotoxicity assay, tumor cell line panel; assay type: cell-based; details: Homo sapiens, exposure to drug for 4 h, range over MCF7, MCF7ADR, read-out: ED50 (effective dose required to inhibit the growth by 50% of the cells)
Description: (§2) FIG. 2A depicts that MCF7 (closed circle), MCF7ADR (open circle), HT29 (open square), DAOY (closed triangle) and LnCaP (open triangle) cells were exposed to fresh medium containing increasing concentrations of chelerythrine chloride for 4 h. After 6 days (MCF7, MCF7 ADR, HT29), 7 days (DAOY) or 13 days (LnCAP), MTT analysis was performed to determine cell density. Inhibition of cell growth relative to control (zero drug addition) was calculated for each concentration. Each point represents the mean of three determinations. […] Inhibition of cell growth relative to control (zero drug addition) was calculated for each concentration. […]
(§3) Cytotoxicity was evaluated using modifications of a described MTT assay (Hansen et al., 1989). […] A microplate reader set at 570 nm was used to determine the absorbance. Results are expressed as the fraction of the optical density determined for cells treated with drug compared to those treated with vehicle.
(§4) The cytotoxic effects of chelerythrine were evaluated in 9 human tumor cell lines to assess its spectrum of activity. Chelerythrine decreased cell viability as determined by the MTT assay in a dose-dependent manner in MCF7 breast (wt p53)(Blagosklonny et al., 1995), MCF7ADR breast (resistant to adriamycin), HT29 colon (mutant p53)(Shao et al., 1997), DaOY brain (mutant p53)(U et al., 1998), and LnCaP (mutant p53) (Carroll et al., 1993) prostate cells (FIG. 2). […]

SQ20B cells = experiment: MTT cytotoxicity assay, SQ20B, dependence on exposure time; assay type: cell-based; details: Homo sapiens, read-out: ED50 (the source's name)
Description: Cytotoxicity was evaluated using modifications of a described MTT assay (Hansen et al., 1989). Briefly, cells growing as a monolayer were plated at a density of 500 cells/well in 96 well-plates and allowed to grow for 24 h. […] 6-13 days after drug treatment, 25 μl of a 5 mg/ml solution of MTT was added to each well followed 4 h later by the addition of 100 μl lysing buffer (20% sodium dodecyl sulfate, 50% N, N-dimethylformamide and 0.8% acetic acid, pH 4.7) for an additional 22 h. A microplate reader set at 570 nm was used to determine the absorbance. Results are expressed as the fraction of the optical density determined for cells treated with drug compared to those treated with vehicle.
as §4, with “2). The effective dose required to inhibit the growth by 50% of the cells (ED50) ranged between 2 and 5 μM upon exposure to drug for 4 h.” for “2).”

[3] = test system: SQ-20B, JSQ-3, SCC-35 and SCC61 cells; experiment: MTT cytotoxicity assay, oral tumor cell lines; assay type: cell-based; details: Homo sapiens, SQ20B, range over SQ-20B, read-out: ED50 (the source's name)
Description: as §2, §3, §4

[4] = Acute lethality (LD50), intraperitoneal; details: mouse, in vivo; intraperitoneal (IP) in mice; read-out: LD50 (dose causing a 50% mortality)
Description: Basal activity of the enzyme (the activity in the absence of Ca^++, phosphatidylserine and dioleine) was not affected. In the present invention, the LD50 (dose causing a 50% mortality) was 20 mg/kg intraperitoneal (IP) in mice.

SMILES	survival (clonogenic) (SQ20B; adriamycin 1 ng/mL alone (0 chelerythrine))	survival (clonogenic) (SQ20B; adriamycin 10 ng/mL alone (0 chelerythrine))	survival (clonogenic) (SQ20B; adriamycin 50 ng/mL alone (0 chelerythrine))	survival (clonogenic) (SQ20B; chelerythrine chloride 2 μM alone (0 ng/mL adriamycin))	survival (clonogenic) (SQ20B; chelerythrine chloride 4 μM alone (0 ng/mL adriamycin))	survival (clonogenic) (SQ20B; chelerythrine chloride 6 μM alone (0 ng/mL adriamycin))	IC50 (L-1210 tumor cells) [µM]	treatment related deaths [1]	body weight relative to the initial weight at the beginning of treatment ([1]; any study animal, at any time) [%]	percent change in volume of treated tumors compared to control tumors (%T/C) (SQ-20B xenografts; day 21, all treatment groups)	mean tumor volume (SQ-20B xenografts; day 21, group 1 as printed) [mm^3]	mean tumor volume (SQ-20B xenografts; day 21, group 2 as printed) [mm^3]	mean tumor volume (SQ-20B xenografts; day 21, group 3 as printed) [mm^3]	cells with morphological changes consistent with apoptosis (SQ-20B cells) [%]	EC50 [2] [µM]	EC50 (SQ20B cells; exposed for 4 h) [µM]	EC50 (SQ20B cells; exposed for 8 h) [µM]	EC50 [3] [µM]	LD50 [4] [mg/kg]
COc1cccc2c1C(=O)c1c(O)c3c(c(O)c1C2=O)C[C@@](O)(C(=O)CO)C[C@@H]3O[C@H]1C[C@H](N)[C@H](O)[C@H](C)O1 [adriamycin, reference compound]	1.09	0.822	0.359	–	–	–	–	–	–	–	–	–	–	–	–	–	–	–	–
COc1ccc2c(c[n+](C)c3c4cc5c(cc4ccc23)OCO5)c1OC [chelerythrine, 1,2-dimethoxy-12-methyl[1,3]benzodioxolo[5,6-c]phenanthridinium]	–	–	–	0.99	0.103	0.034	0.053	no treatment related deaths	≥ 90	less than 40%	215	197	115	~100	2 to 5	3.7	1.8	4 to 5.2	20
